The results in this text go back to patent US7060721B1, “Imidazole compounds and medicinal use thereof” (Fujisawa Pharmaceutical Co., Ltd., priority 1998, dated 2006).

The subject of one data set is db/db mice. Nature of the data set: Blood sugar level depressing activity in db/db mice. It counts as in vivo. The conditions noted are these: female db/db mice; dose 3.2 mg/kg; drug-mixed diet given for 14 days; difference between db/db control group and +/+ mice taken as 100%. The protocol: (Blood Sugar Level Depressing Activity in db/db Mice)
Female C57BL/KsJ-dbm db+/db+, C57BL/KsJ-dbm +m/+m (Jackson Laboratory) mice (5 weeks old) were purchased and subjected to the test after 2–3 weeks of acclimating period.
The test drug was mixed with a powder diet (CE-2, Clea Japan, Inc.) in a mortar. In the case of administration in 100 mg/kg, the mixing proportion was 0.1%, in the case of 30 mg/kg, the proportion was 0.03% and in the case of 10 mg/kg, the proportion was 0.01%. The diet was changed twice a week for each group. The amount of the diet given and the amount left were recorded and the diet intake was calculated by determining the difference.
The female db/db mice were grouped according to body weight, blood sugar level and triglyceride concentration in plasma. […] The blood sugar value, triglyceride concentration in plasma and insulin concentration in plasma were measured at day 0 and day 14, and blood sugar value and triglyceride concentration in plasma were measured at day 7. Body weight was measured at day 0, day 7 and day 14. […]
Blood sugar value was measured using 10–15 μl of plasma and in accord with glucose oxidase method (glucose CII-Test Wako, Wako Pure Chemicals Co., Ltd.). The triglyceride concentration in plasma was measured using 10–15 μl of plasma and in accord with GPO-p-chlorophenol method (triglyceride G-Test Wako) or GPO-DAOS method (triglyceride E-Test Wako). […]

Molecule `Cc1nc(Cl)c(/C=C/C(=O)NS(=O)(=O)/C=C/c2ccccc2)n1Cc1ncc(C(F)(F)F)cc1Cl` [Example 47, (E)-3-(4-chloro-1-((3-chloro-5-(trifluoromethyl)pyridin-2-yl)methyl)-2-methylimidazol-5-yl)-N-((E)-2-phenylethenylsulfonyl)-2-propenamide] displayed a melting point of 249 to 252 °C.
The same measure, in the same setting: next, `CCCCCOc1ccc(Cn2c(C)nc(Cl)c2C(=O)NS(=O)(=O)/C=C/c2ccccc2)c(Cl)c1` [Example 72, 4-chloro-1-(2-chloro-4-(1-pentyloxy)benzyl)-2-methyl-5-((E)-2-phenylethenesulfonyl-carbamoyl)-1H-imidazole]: 107 to 110 °C; `CCCCCOc1ccc(Cn2c(/C=C(\Cc3cccnc3)C(=O)NS(=O)(=O)/C=C/c3ccccc3)cnc2C)c(Cl)c1` [Example 69, (E)-3-(1-(2-chloro-4-(1-pentyloxy)benzyl)-2-methylimidazol-5-yl)-2-((3-pyridyl)methyl)-N-((E)-2-phenylethenesulfonyl)-2-propenamide]: 156 to 158 °C.
As for `CCCCCS(=O)(=O)NC(=O)/C=C/c1c(Cl)nc(CC)n1Cc1ccc(C#Cc2ccccc2)cc1Cl` [Example 57, (E)-3-(4-chloro-1-(2-chloro-4-(phenylethynyl)benzyl)-2-ethylimidazol-5-yl)-N-(1-pentanesulfonyl)-2-propenamide], the melting point lay in the range of 161 to 163 °C.
On the same count and under the same terms, next, `CCCCCS(=O)(=O)NC(=O)/C=C/c1c(Cl)nc(C)n1Cc1ccc(-c2ccccc2)cc1Cl` [Example 9, (E)-3-[4-chloro-1-(2-chloro-4-phenylbenzyl)-2-methylimidazol-5-yl]-N-(1-pentanesulfonyl)-2-propenamide]: 203 to 204 °C; `Cc1nc(C)n(Cc2ccc(Br)cc2Cl)c1/C=C/C(=O)NS(=O)(=O)/C=C/c1ccccc1` [Example 64, (E)-3-(1-(4-bromo-2-chlorobenzyl)-2,4-dimethylimidazol-5-yl)-N-((E)-2-phenylethenesulfonyl)-2-propenamide]: 251 to 253 °C.
Take `Cc1ccc(S(=O)(=O)NC(=O)/C=C/c2c(Cl)nc(C)n2Cc2ccc(-c3ccccc3)cc2Cl)cc1` [Compound A, (E)-3-[4-chloro-1-(2-chloro-4-phenylbenzyl)-2-methylimidazol-5-yl]-N-((4-methylbenzene)sulfonyl)-2-propenamide]: the “Blood sugar decrease (%)” value in the data set with db/db mice is listed as 63%.
Molecule `CCCCCOc1ccc(Cn2c(/C=C(\C)C(=O)NS(=O)(=O)/C=C/c3ccccc3)cnc2C)c(Cl)c1` [Example 70, (E)-3-(1-(2-chloro-4-(1-pentyloxy)benzyl)-2-methylimidazol-5-yl)-2-methyl-N-((E)-2-phenylethenesulfonyl)-2-propenamide] came in with a melting point of 143 to 145 °C.
Molecule `Cc1nc(Cl)c(/C=C/C(=O)NS(=O)(=O)/C=C/c2ccccc2)n1Cc1ccc(COc2ccccc2)cc1Cl` [Example 31, (E)-3-(4-chloro-1-(2-chloro-4-(phenoxymethyl)benzyl)-2-methylimidazol-5-yl)-N-(((E)-2-phenylethenyl)sulfonyl)-2-propenamide] displayed a melting point of 202 to 203 °C.
On the same count and under the same terms, next, `CCCCCS(=O)(=O)NC(=O)/C=C/c1c(Cl)nc(CC)n1Cc1ccc(/C=C/c2ccccc2)cc1Cl` [Example 62, (E)-3-(4-chloro-1-(2-chloro-4-((E)-2-phenylethenyl)benzyl)-2-ethylimidazol-5-yl)-N-(1-pentanesulfonyl)-2-propenamide]: 197 to 200 °C.
The same measure, in the same setting: the figure for `CCCCCS(=O)(=O)NC(=O)/C=C/c1c(Cl)nc(C)n1Cc1ccc(C#Cc2ccccc2)cc1Cl` [Example 44, (E)-3-(4-chloro-1-(2-chloro-4-(phenylethynyl)benzyl)-2-methylimidazol-5-yl)-N-(1-pentanesulfonyl)-2-propenamide] is 207 to 209 °C; for `CCC/C=C/S(=O)(=O)NC(=O)/C=C/c1c(Cl)nc(C)n1Cc1ccc(C#Cc2ccccc2)cc1Cl` [Example 45, (E)-3-(4-chloro-1-(2-chloro-4-(phenylethynyl)benzyl)-2-methylimidazol-5-yl)-N-((E)-1-penten-1-ylsulfonyl)-2-propenamide] it is 207 to 210 °C.
Same read-out and setting: next, `Cc1nc(Cl)c(/C=C/C(=O)NS(=O)(=O)/C=C/c2ccccc2)n1Cc1ccc(C(F)(F)F)cc1Cl` [Example 29, (E)-3-(4-chloro-1-(2-chloro-4-(trifluoromethyl)benzyl)-2-methylimidazol-5-yl)-N-(((E)-2-phenylethenyl)sulfonyl)-2-propenamide]: 261 to 263 °C; `CCCCCS(=O)(=O)NC(=O)/C=C/c1c(Cl)nc(C)n1Cc1ccc(NC(=O)OC(C)(C)C)cc1Cl` [Example 49, (E)-3-(1-(4-(tert-butoxycarbonylamino)-2-chlorobenzyl)-4-chloro-2-methylimidazol-5-yl)-N-(1-pentanesulfonyl)-2-propenamide]: 202 to 204 °C; `CCCCCS(=O)(=O)NC(=O)/C=C/c1c(Cl)nc(C)n1Cc1ccc(OCC2CCCC2)cc1Cl` [Example 19, (E)-3-(4-chloro-1-(2-chloro-4-((cyclopentyl)methyloxy)benzyl)-2-methylimidazol-5-yl)-N-(1-pentanesulfonyl)-2-propenamide]: 177 to 178 °C.
In the case of `CCCCCOc1ccc(Cn2c(C)nc(Cl)c2COC(=O)NS(=O)(=O)c2ccc(C)cc2)c(Cl)c1` [Example 73, (4-chloro-1-(2-chloro-4-(1-pentyloxy)benzyl)-2-methyl-1H-imidazol-5-yl)methyl N-(4-methylbenzenesulfonyl)carbamate], the melting point lay within 109 to 111 °C.
The same measure, in the same setting: the figure for `CSc1ccc(Cn2c(C)nc(Cl)c2/C=C/C(=O)NS(=O)(=O)/C=C/c2ccccc2)c(Cl)c1` [Example 27, (E)-3-(4-chloro-1-(2-chloro-4-(methylthio)benzyl)-2-methylimidazol-5-yl)-N-(((E)-2-phenylethenyl)sulfonyl)-2-propenamide] is 237 to 238 °C.

By melting point is commonly meant the temperature, or range, at which the solid turns liquid.
